From patent US11759461B2, “Small molecule inhibitors of cancer stem cells and mesenchymal cancer types” (The Scripps Research Institute, priority 2017, dated 2023)
pIC50: −log10 of the molar value. Where two headings read alike, the source gives them in different places.

Test system: FOXC2-expressing HMLER cells
Test: Cell Titer Glo viability of FOXC2-HMLER cells (high throughput screen and 10-point response)
Format: cell-based
Details: Homo sapiens, 72 hours
Description: For high throughput screening, FOXC2-HMLER and HMLER cells were plated at 10^3 cells per well in white 384-well plates in 50 μL of MEGM medium (Lonza). Cells were allowed to attach for one hour before compound was transferred to each well as a DMSO solution using a 100 nL pintool head affixed to a PerkinElmer FX instrument. After 72-hour incubation, 30 μL of a Cell Titer Glo solution (diluted 1:6 in water, Promega) was dispensed into each well and luminance values were recorded using an Envision plate reader. […] All other miniaturized, selective viability experiments were performed as above using the indicated growth medium.
More specifically, in the high throughput screening assay above, each cell line was plated at 1,000 cells per well in 384-well plates, treated for 72 hours with 2 μM of test compound, and the viability of each line was determined in parallel by Cell Titer Glo (Promega) luminance measurements.

[1] = scored relative to parent compound 1, read-out: Activity Score, inhibition of FOXC2-expressing HMLER cells by Formula I compounds
[2] = scored relative to parent compound 3, read-out: Activity Score, inhibition of FOXC2-expressing HMLER cells by Formula III compounds
[3] = scored relative to parent compound 2, read-out: Activity Score, inhibition of FOXC2-expressing HMLER cells by Formula II compounds
[4] = scored relative to parent compound 4, read-out: Activity Score, inhibition of FOXC2-expressing HMLER cells by Formula IV compounds

| SMILES | pIC50 [3] | other results |
| --- | --- | --- |
| Clc1ccccc1N1CCN(c2cnnc3c(Cl)cccc23)CC1 [Compound 1SRW] |  | pIC50 [1]: 4.70 to 6.00 |
| Cc1c(C(=O)NC(C)C(=O)N2CCCCC2)cccc1-n1nnc2cccnc21 (centres unmarked) [Compound 3CK] |  | pIC50 [2]: < 4.70 |
| Clc1ccc(N2CCN(c3ccccc3Cl)CC2)nn1 [Compound 1E] |  | pIC50 [1]: < 4.70 |
| CCc1ccc(NCc2cc3cc4c(cc3n(CC(=O)Nc3ccccc3C)c2=O)OCCO4)cc1 [Compound 2P] | 4.70 to 6.00 |  |
| COc1cc2cc(CNc3ccc(C)cc3)c(=O)n(CC(=O)Nc3ccc(C(C)C)cc3)c2cc1OC [Compound 2CJ] | < 4.70 |  |
| COc1ccc2cc(CNc3ccccc3)c(=O)n(CC(=O)NCCc3ccccc3)c2c1 [Compound 2AX] | < 4.70 |  |
| FC(F)(F)c1cccc(N2CCN(c3cnnc4c(Cl)cccc34)CC2)c1 [Compound 1SRP] |  | pIC50 [1]: 4.70 to 6.00 |
| O=C(c1cccc(-n2nnc3cccnc32)c1)N1CCN(c2ccccc2)CC1 [Compound 3P] |  | pIC50 [2]: 4.70 to 6.00 |
| O=C(c1cccc(-n2nnc3cccnc32)c1)N1CCN(C2CCCCC2)CC1 [Compound 3R] |  | pIC50 [2]: 4.70 to 6.00 |
| CCc1ccc(NCc2cc3ccc(OC)cc3n(CC(=O)NCc3ccc(C)cc3)c2=O)cc1 [Compound 2DQ] | < 4.70 |  |
| COc1cccc(NC(=O)Cn2c(=O)c(CNc3ccc(OC)c(OC)c3)cc3ccc(C)cc32)c1 [Compound 2EU] | < 4.70 |  |
| COc1ccc2cc(CNc3ccc(C)cc3)c(=O)n(CC(=O)Nc3ccc(C)cc3)c2c1 [Compound 2AY] | < 4.70 |  |
| CC(=O)c1cccc(NC(=O)Cn2c(=O)c(CNc3ccc(C)cc3)cc3cc4c(cc32)OCCO4)c1 [Compound 2BF] | < 4.70 |  |
| CCOC(=O)c1ccc(NC(=O)Cn2c(=O)c(CNc3ccc(C)cc3)cc3ccc(OC)cc32)cc1 [Compound 2GM] | < 4.70 |  |
| CCc1ccccc1NC(=O)Cn1c(=O)c(CNc2ccc(OC)cc2)cc2cc3c(cc21)OCCO3 [Compound 2AI] | 4.70 to 6.00 |  |
| COc1cc(NC(=O)Cn2c(=O)c(CNc3ccc(C)cc3)cc3ccc(OC)cc32)cc(OC)c1 [Compound 2CY] | < 4.70 |  |
| Fc1c(Cl)cc(N2CCN(c3cnnc4c(Cl)cccc34)CC2)cc1Cl [Compound 1SRI] |  | pIC50 [1]: 4.70 to 6.00 |
| Cc1c(C(=O)NCCCN2CCN(c3ccc(F)cc3)CC2)cccc1-n1nnc2cccnc21 [Compound 3CC] |  | pIC50 [2]: < 4.70 |
| COc1ccc(NCc2cc3cc4c(cc3n(CC(=O)Nc3ccccc3)c2=O)OCCO4)cc1 [Compound 2AA] | 4.70 to 6.00 |  |
| CCc1ccc(NCc2cc3ccc(OC)cc3n(CC(=O)Nc3ccc(CC)cc3)c2=O)cc1 [Compound 2CW] | < 4.70 |  |
| Cc1cccc(N2CCN(C(=O)c3ccc(C)c(-n4nnc5cccnc54)c3)CC2C)c1 (centres unmarked) [Compound 3A] |  | pIC50 [2]: > 6.00 |
| CCN(Cc1ccccc1)C(=O)c1ccc(C)c(-n2nnc3cccnc32)c1 [Compound 3BG] |  | pIC50 [2]: < 4.70 |
| Clc1cccc(N2CCN(c3cnnc4c(Cl)cccc34)CC2)n1 [Compound 1SRAD] |  | pIC50 [1]: 4.70 to 6.00 |
| COc1cccc(N2CCN(c3cnnc4c(Cl)cccc34)CC2)c1 [Compound 1SRT] |  | pIC50 [1]: > 6.00 |
| COc1ccc(NCc2cc3ccc(C)cc3n(CC(=O)Nc3cccc(C)c3)c2=O)cc1OC [Compound 2BM] | < 4.70 |  |

| SMILES | pIC50 [3] | other results |
| --- | --- | --- |
| COc1ccc(NCc2cc3cc(OC)c(OC)cc3n(CC(=O)Nc3ccccc3)c2=O)cc1 [Compound 2IB] | < 4.70 |  |
| Cc1c(C(=O)N2CCN(c3ccccc3)CC2)cccc1-n1nnc2cccnc21 [Compound 3AJ] |  | pIC50 [2]: 4.70 to 6.00 |
| N#Cc1cc(Cl)cc(N2CCN(c3cnnc4c(Cl)cccc34)CC2)c1 [Compound 1SRAK] |  | pIC50 [1]: > 6.00 |
| Cc1cc(C(=O)NCCCN2CCN(C3CCCCC3)CC2)ccc1-n1nnc2cccnc21 [Compound 3AU] |  | pIC50 [2]: < 4.70 |
| COc1ccc(NC(=O)Cn2c(=O)c(CNc3ccccc3)cc3ccc(C)cc32)cc1OC [Compound 2GE] | < 4.70 |  |
| COc1cc2cc(CNc3ccccc3)c(=O)n(CC(=O)Nc3ccc(C)cc3C)c2cc1OC [Compound 2CB] | < 4.70 |  |
| COc1ccc(NCc2cc3ccc(OC)cc3n(CC(=O)Nc3ccc(C)cc3Cl)c2=O)cc1 [Compound 2GR] | < 4.70 |  |
| Clc1cc(Cl)cc(N2CCN(c3cnnc4ccccc34)CC2)c1 [Compound 1SRN] |  | pIC50 [1]: > 6.00 |
| Cc1c(C(=O)NCCCN2CCN(Cc3ccccc3)CC2)cccc1-n1nnc2cccnc21 [Compound 3CD] |  | pIC50 [2]: < 4.70 |
| Cc1nn(-c2ccc(F)cc2)c(C)c1S(=O)(=O)N1CCN(c2ccc(F)cc2)CC1 [Compound 4AC] |  | pIC50 [4]: < 4.70 |
| COc1cccc(CNC(=O)Cn2c(=O)c(CNc3ccc(C)cc3)cc3ccc(OC)cc32)c1 [Compound 2HY] | < 4.70 |  |
| O=C(Cn1c(=O)c(CNc2ccccc2)cc2cc3c(cc21)OCCO3)Nc1ccccc1 [Compound 2EQ] | < 4.70 |  |
| Cc1ccccc1S(=O)(=O)N1CCN(c2cc(-c3ccccc3)ncn2)CC1 [Compound 4V] |  | pIC50 [4]: < 4.70 |
| COc1ccc(NCc2cc3cc4c(cc3n(CC(=O)Nc3ccc(C)cc3)c2=O)OCCO4)cc1 [Compound 2BP] | < 4.70 |  |
| Cc1cc(C(=O)NC2CCN(Cc3ccccc3)CC2)ccc1-n1nnc2cccnc21 [Compound 3N] |  | pIC50 [2]: 4.70 to 6.00 |
| COc1cccc(NC(=O)Cn2c(=O)c(CNc3ccccc3)cc3ccc(OC)cc32)c1 [Compound 2DX] | < 4.70 |  |
| Cc1cccc(N2CCN(S(=O)(=O)c3c(C)nn(-c4ccc(F)cc4)c3C)CC2)c1C [Compound 4F] |  | pIC50 [4]: > 6.00 |
| COc1ccc2cc(CNc3ccccc3)c(=O)n(CC(=O)NCc3ccc(C)cc3)c2c1 [Compound 2GQ] | < 4.70 |  |
| COc1ccc(N2CCN(c3nccn4nc(-c5ccc(Cl)cc5)cc34)CC2)cc1 [Compound 1F] |  | pIC50 [1]: < 4.70 |
| Cc1ccc(NC(=O)c2ccc(-n3nnc4cccnc43)c(C)c2)cc1C [Compound 3AR] |  | pIC50 [2]: < 4.70 |
| CCOC(=O)c1ccccc1NC(=O)Cn1c(=O)c(CNc2ccc(C)cc2)cc2ccc(OC)cc21 [Compound 2D] | 4.70 to 6.00 |  |
| COc1ccc(OC)c(NC(=O)Cn2c(=O)c(CNc3ccccc3)cc3ccc(C)cc32)c1 [Compound 2CM] | < 4.70 |  |
| COc1ccc(NC(=O)Cn2c(=O)c(CNc3ccccc3)cc3cc4c(cc32)OCCO4)cc1 [Compound 2GO] | < 4.70 |  |
| COc1ccc2cc(CNc3ccccc3)c(=O)n(CC(=O)Nc3cc(C)ccc3C)c2c1 [Compound 2R] | 4.70 to 6.00 |  |
| Cc1cccc(N2CCN(C(=O)c3cccc(-n4nnc5cccnc54)c3)CC2C)c1 (centres unmarked) [Compound 3S] |  | pIC50 [2]: 4.70 to 6.00 |

| SMILES | pIC50 [3] | other results |
| --- | --- | --- |
| Cc1ccc(NC(=O)c2ccc(-n3nnc4cccnc43)c(C)c2)cc1 [Compound 3AT] |  | pIC50 [2]: < 4.70 |
| CCc1ccccc1NC(=O)Cn1c(=O)c(CNc2ccccc2)cc2ccc(OC)cc21 [Compound 2BL] | < 4.70 |  |
| COc1cc2cc(CNc3ccccc3)c(=O)n(CC(=O)Nc3cc(C)ccc3C)c2cc1OC [Compound 2X] | 4.70 to 6.00 |  |
| CCc1ccc(NCc2cc3cc(OC)c(OC)cc3n(CC(=O)Nc3ccccc3)c2=O)cc1 [Compound 2CF] | < 4.70 |  |
| COc1ccc(CNC(=O)Cn2c(=O)c(CNc3ccccc3)cc3ccc(OC)cc32)cc1 [Compound 2BI] | < 4.70 |  |
| Cc1cccc(-c2cc(N3CCN(S(=O)(=O)c4ccc(C)cc4C)CC3)ncn2)c1 [Compound 4R] |  | pIC50 [4]: < 4.70 |
| Clc1cccc(N2CCN(c3cnc4ccccc4n3)CC2)c1 [Compound 1D] |  | pIC50 [1]: 4.70 to 6.00 |
| O=C(c1ccc(-n2nnc3cccnc32)cc1)N1CCN(c2ccccc2F)CC1 [Compound 3J] |  | pIC50 [2]: 4.70 to 6.00 |
| COc1ccc(NC(=O)Cn2c(=O)c(CNc3ccccc3)cc3ccc(OC)cc32)cc1 [Compound 2DH] | < 4.70 |  |
| CCc1ccc(NCc2cc3ccc(OC)cc3n(CC(=O)Nc3ccccc3CC)c2=O)cc1 [Compound 2AP] | 4.70 to 6.00 |  |
| COc1ccc2cc(CNc3ccccc3)c(=O)n(CC(=O)NCc3ccc(Cl)cc3)c2c1 [Compound 2AR] | < 4.70 |  |
| Cc1c(C(=O)NCCCN2CCC(N3CCCCC3)CC2)cccc1-n1nnc2cccnc21 [Compound 3CE] |  | pIC50 [2]: < 4.70 |
| COc1cc2cc(CNc3ccc(C)cc3)c(=O)n(CC(=O)Nc3ccccc3)c2cc1OC [Compound 2FU] | < 4.70 |  |
| COc1ccc2cc(CNc3ccc(C)cc3)c(=O)n(CC(=O)NCCc3ccccc3)c2c1 [Compound 2HH] | < 4.70 |  |
| CCOc1ccccc1NC(=O)Cn1c(=O)c(CNc2ccc(CC)cc2)cc2ccc(OC)cc21 [Compound 2B] | > 6.00 |  |
| Cc1ccc(-c2cc(N3CCN(S(=O)(=O)c4ccc(C)cc4C)CC3)ncn2)cc1 [Compound 4U] |  | pIC50 [4]: < 4.70 |
| Cc1cccc(-c2cc(N3CCN(S(=O)(=O)c4ccccc4C)CC3)ncn2)c1 [Compound 4I] |  | pIC50 [4]: 4.70 to 6.00 |
| Cc1ccc(NCc2cc3cc4c(cc3n(CC(=O)Nc3ccccc3)c2=O)OCCO4)cc1 [Compound 2DA] | < 4.70 |  |
| Cc1ccc(C(=O)N2CCN(C3CCCCC3)CC2)cc1-n1nnc2cccnc21 [Compound 3BE] |  | pIC50 [2]: < 4.70 |
| Cc1ccc(CNC(=O)c2ccc(C)c(-n3nnc4cccnc43)c2)cc1 [Compound 3BD] |  | pIC50 [2]: < 4.70 |
| Cc1c(C(=O)N2CCN(c3ccccc3F)CC2)cccc1-n1nnc2cccnc21 [Compound 3BW] |  | pIC50 [2]: < 4.70 |
| Fc1c(Cl)cccc1N1CCN(c2cnnc3c(Cl)cccc23)CC1 [Compound 1SRK] |  | pIC50 [1]: 4.70 to 6.00 |
| COc1cc2cc(CNc3ccc(C)cc3)c(=O)n(CC(=O)Nc3ccc(C)cc3)c2cc1OC [Compound 2FY] | < 4.70 |  |
| COc1ccc2cc(CNc3ccc(C)cc3)c(=O)n(CC(=O)Nc3ccc(F)cc3)c2c1 [Compound 2AH] | 4.70 to 6.00 |  |
